How the values were obtained:
Assay in all cases: concentration in plasma after dosing
[1] = system: Rat; settings: 9 h; dosed: Emodin; 80 mg/kg; oral; Female; F344/N
[2] = system: Rat; settings: dosed: Emodin, 5 mg/kg, iv, Male, F344/N
[3] = system: Rat; settings: 12 h; dosed: Emodin; 80 mg/kg; oral; Male; F344/N
[4] = system: Rat; settings: 5 min; dosed: Emodin; 5 mg/kg; iv; Male; F344/N
[5] = system: Rat; settings: 20 min; dosed: Emodin; 5 mg/kg; iv; Female; F344/N
[6] = system: Rat; settings: 40 min; dosed: Emodin; 5 mg/kg; iv; Male; F344/N
[7] = system: Rat; settings: 6 h; dosed: Emodin; 80 mg/kg; oral; Female; F344/N
[8] = system: Rat; settings: 6 h; dosed: Emodin; 80 mg/kg; oral; Male; F344/N
[9] = system: Rat; settings: dosed: Emodin, F344/N
[10] = system: Rat; settings: 40 min; dosed: Emodin; 5 mg/kg; iv; Male; F344/N; remark: listed apart in the source
[11] = system: Rat; settings: 20 min; dosed: Emodin; 5 mg/kg; iv; Male; F344/N
[12] = system: Rat; settings: 9 h; dosed: Emodin; 80 mg/kg; oral; Female; F344/N; remark: listed apart in the source
[13] = system: Rat; settings: dosed: Emodin, 80 mg/kg, oral, Female, F344/N
[14] = system: Rat; settings: dosed: Emodin, 5 mg/kg, iv, Female, F344/N
[15] = system: Rat; settings: dosed: Emodin, 5 mg/kg, iv, Female, F344/N; remark: listed apart in the source
[16] = system: Rat; settings: 10 min; dosed: Emodin; 5 mg/kg; iv; Female; F344/N
[17] = system: Rat; settings: 40 min; dosed: Emodin; 5 mg/kg; iv; Female; F344/N
[18] = system: Rat; settings: 40 min; dosed: Emodin; 5 mg/kg; iv; Female; F344/N; remark: listed apart in the source
[19] = system: Rat; settings: 10 min; dosed: Emodin; 5 mg/kg; iv; Male; F344/N
[20] = system: Rat; settings: dosed: Emodin, 5 mg/kg, iv, Female, F344/N; remark: listed apart in the source
[21] = system: Rat; settings: 20 min; dosed: Emodin; 5 mg/kg; iv; Male; F344/N; remark: listed apart in the source
[22] = system: Rat; settings: 6 h; dosed: Emodin; 80 mg/kg; oral; Female; F344/N; remark: listed apart in the source
[23] = system: Rat; settings: 10 min; dosed: Emodin; 5 mg/kg; iv; Female; F344/N; remark: listed apart in the source
[24] = system: Rat; settings: dosed: Emodin, 5 mg/kg, iv, Female, F344/N; remark: listed apart in the source
[25] = system: Rat; settings: 20 min; dosed: Emodin; 5 mg/kg; iv; Female; F344/N; remark: listed apart in the source
[26] = system: Rat; settings: 9 h; dosed: Emodin; 80 mg/kg; oral; Male; F344/N
[27] = system: Rat; settings: 9 h; dosed: Emodin; 80 mg/kg; oral; Male; F344/N; remark: listed apart in the source
[28] = system: Rat; settings: dosed: Emodin, 5 mg/kg, iv, Male, F344/N; remark: listed apart in the source
[29] = system: Rat; settings: dosed: Emodin, 80 mg/kg, oral, Female, F344/N; remark: listed apart in the source
[30] = system: Rat; settings: 5 min; dosed: Emodin; 5 mg/kg; iv; Male; F344/N; remark: listed apart in the source
[31] = system: Rat; settings: 10 min; dosed: Emodin; 5 mg/kg; iv; Male; F344/N; remark: listed apart in the source

Work on `Cc1cc(O)c2c(c1)C(=O)c1cc(O)cc(O)c1C2=O` [Emodin] yielded a concentration in plasma [1] of 198 ng/mL, a concentration in plasma ([2]; 2 min) of 10500 ng/mL and a concentration in plasma ([2]; 1 h) of 229 ng/mL. The concentration in plasma [3] was 110 ng/mL, the concentration in plasma [4] was 8480 ng/mL and the concentration in plasma [5] was 1190 ng/mL. It also gave a concentration in plasma [6] of 1700 ng/mL, a concentration in plasma [7] of 165 ng/mL and a concentration in plasma [8] of 108 ng/mL. It also gave a concentration in plasma ([9]; 2 min, 5 mg/kg, iv, Female) of 4970 ng/mL, a concentration in plasma ([9]; 2 min, 5 mg/kg, iv, Male) of 8380 ng/mL and a concentration in plasma ([9]; 5 min, 5 mg/kg, iv, Female) of 3040 ng/mL. For the same compound, the concentration in plasma ([9]; 5 min, 5 mg/kg, iv, Male) was 7820 ng/mL, the concentration in plasma ([9]; 10 min, 5 mg/kg, iv, Female) was 1650 ng/mL and the concentration in plasma ([9]; 10 min, 5 mg/kg, iv, Male) was 4660 ng/mL. For the same compound, the concentration in plasma ([9]; 20 min, 5 mg/kg, iv, Female) was 2400 ng/mL, the concentration in plasma ([9]; 20 min, 5 mg/kg, iv, Male) was 4970 ng/mL and the concentration in plasma ([9]; 40 min, 5 mg/kg, iv, Female) was 740 ng/mL. It also gave a concentration in plasma ([9]; 40 min, 5 mg/kg, iv, Male) of 1980 ng/mL, a concentration in plasma ([9]; 1 h, 5 mg/kg, iv, Female) of 256 ng/mL and a concentration in plasma ([9]; 1 h, 5 mg/kg, iv, Male) of 205 ng/mL. It also gave a concentration in plasma ([9]; 1.5 h, 5 mg/kg, iv, Female) of 119 ng/mL, a concentration in plasma ([9]; 1.5 h, 80 mg/kg, oral, Female) of 136 ng/mL and a concentration in plasma ([9]; 3 h, 80 mg/kg, oral, Female) of 115 ng/mL. For the same compound, the concentration in plasma ([9]; 6 h, 40 mg/kg, oral, Female) was 114 ng/mL, the concentration in plasma ([9]; 6 h, 80 mg/kg, oral, Female) was 143 ng/mL and the concentration in plasma ([9]; 6 h, 80 mg/kg, oral, Male) was 159 ng/mL. It also gave a concentration in plasma ([9]; 8 h, 40 mg/kg, oral, Female) of 111 ng/mL, a concentration in plasma ([9]; 9 h, 80 mg/kg, oral, Female) of 269 ng/mL and a concentration in plasma ([9]; 9 h, 80 mg/kg, oral, Male) of 126 ng/mL. It also gave a concentration in plasma ([9]; 12 h, 80 mg/kg, oral, Female) of 167 ng/mL, a concentration in plasma ([9]; 12 h, 80 mg/kg, oral, Male) of 116 ng/mL and a concentration in plasma [10] of 2200 ng/mL. The concentration in plasma [11] was 5930 ng/mL, the concentration in plasma [12] was 232 ng/mL and the concentration in plasma ([13]; 3 h) was 136 ng/mL. The concentration in plasma ([13]; 12 h) was 175 ng/mL, the concentration in plasma ([14]; 2 min) was 5990 ng/mL and the concentration in plasma ([14]; 1 h) was 163 ng/mL. It also gave a concentration in plasma ([15]; 5 min) of 4780 ng/mL, a concentration in plasma ([15]; 1.5 h) of 128 ng/mL and a concentration in plasma [16] of 2260 ng/mL. The concentration in plasma [17] was 928 ng/mL, the concentration in plasma [18] was 963 ng/mL and the concentration in plasma [19] was 6180 ng/mL. For the same compound, the concentration in plasma ([20]; 2 min) was 6490 ng/mL, the concentration in plasma ([20]; 1 h) was 158 ng/mL and the concentration in plasma [21] was 4360 ng/mL. The concentration in plasma [22] was 151 ng/mL, the concentration in plasma [23] was 3010 ng/mL and the concentration in plasma ([24]; 5 min) was 5160 ng/mL. The concentration in plasma ([24]; 1.5 h) was 151 ng/mL, the concentration in plasma [25] was 794 ng/mL and the concentration in plasma [26] was 155 ng/mL. It also gave a concentration in plasma [27] of 153 ng/mL, a concentration in plasma ([28]; 2 min) of 8580 ng/mL and a concentration in plasma ([28]; 1 h) of 219 ng/mL. It also gave a concentration in plasma ([29]; 3 h) of 255 ng/mL, a concentration in plasma ([29]; 12 h) of 184 ng/mL and a concentration in plasma [30] of 8390 ng/mL. The concentration in plasma [31] was 7370 ng/mL.

— EPA's CvTdb concentration-time database
